Publication PMC12259270, “Sensory neuron–expressed FGF13 controls nociceptive signaling in diabetic neuropathy models” (The Journal of Clinical Investigation, 2025)
Residues, ends and D or L forms follow the SMILES beside them. *: point of attachment. NHPh = c1ccc(N*)cc1

System: Na+ currents in hIPSC-derived sensory neurons (RealDRG)
Assay: Whole-cell voltage clamp, hIPSC-derived sensory neurons (RealDRG) with Nav1.8 blocker A-803467
Format: cell-based, human
Details: for Activation / Peak Density / Steady-State inactivation / Tau (τ) / Long-term inactivation, 2nd Pulse / Long-term inactivation, 3rd Pulse / Long-term inactivation, 4th Pulse: RealDRG
Protocol: Next, we conducted whole-cell patch-clamp electrophysiological recordings in hIPSC-derived sensory neurons under three conditions: unstimulated and treated with 0.07% ethanol (capsaicin vehicle), treated with capsaicin (100 nM, 10 minutes), and treated with capsaicin plus SB-366791 (10 μM), a selective TRPV1 inhibitor. Each group was exposed to either vehicle (0.01% DMSO) or PW164 (50 μM), with all recordings performed in the presence of the Nav1.8 blocker A-803467 (300 nM) ([41]). The experimental groups are color coded in Figure 2A. Capsaicin caused potentiation of INa (Figure 2A) and induced hyperpolarizing shifts in the V1/2 of activation (Figure 2B) and SSI (Figure 2C). […] Next, we investigated whether silencing FGF13 could replicate PW164’s effects and prevent additional activity of the compound. hIPSC-derived sensory neurons were transfected with a previously validated pAAV-shFGF13-GFP construct ([42]) (Supplemental Figure 8). […] Neither PW164 nor FGF13 silencing affected Na+ currents in neurons transfected with pAAV-shCTRL-GFP or pAAV-shFGF13-GFP, whether unstimulated or treated with capsaicin in the presence of ProTx II (Supplemental Figure 9 and Supplemental Table 6). Thus, PW164 selectively modulated FGF13-dependent Na^+ current sensitization via TRPV1, with FGF13 silencing mimicking and validating PW164’s effect. […]
Whole-cell patch clamp electrophysiology
HEK293-Nav1.7 cells, HEK293 stably expressing human Nav1.6 (HEK-Nav1.6), HEK293 stably expressing human Nav1.5 (HEK-Nav1.5), human hIPSC-derived sensory neurons (RealDRGTM from Anatomic Incorporated 1020F1-1M) and donor-derived DRG neurons were plated at low density on glass coverslips and processed for whole-cell patch clamp electrophysiology in voltage-clamp and/or current clamp mode. Whole-cell patch electrophysiological experiments were conducted following previously published studies (26). Current densities were obtained by dividing INa amplitude by membrane capacitance. Current –voltage relationships were generated by plotting current density as a function of the […]. Conductance (G Na) was calculated by the […]
where INa is the current amplitude at voltage Vm, and Erev is the Na+ reversal potential.
Activation curves were derived by plotting normalized GNa as a function of test potential and fitted using […]
Where GNa,Max is the maximum conductance, Va is the membrane potential of half-maximal activation, Em is the membrane voltage and k is the slope factor. For steady -state inactivation, normalized current amplitude (INa/INa,Max) at the test potential was plotted as a function of prepulse potential (Vm) and fitted using the […]
Where Vh is the potential of half-maximal inactivation, E m is the membrane voltage, and k is the slope factor.
Transient INa inactivation decay was estimated with the standard exponential equation. Inactivation time constant (tau, τ) was fitted with the following equation: […]
where I(t) is the amplitude of the current at time t and Iss is the steady-state current during a single voltage-step.
The goodness of fitting was determined by correlation coefficient (R), and the cutoff of R was set at 0.85. To observe effects on long-term inactivation (LTI), a four-step protocol was employed during which cells were subjected to four 0 mV, 20 ms depolarization pulses separated by −90 mV, 40 ms recovery intervals. To control for various cell sizes, the current densities were calculated by dividing INa peak current amplitude/membrane capacitance (Cm). To represent the fraction of channels entering into LTI, the peak INa observed during depolarization cycles 2-4 was normalized to the peak INa observed during depolarization cycle 1 (INa/INa,Cycle 1) and plotted as a function of the depolarization cycle.
The cumulative (frequency-dependent) use-dependency was determined by applying 20 pulses with a depolarization to −10 mV (50 ms duration) and 50 ms recovery intervals with a train of 20 pulses at 10 Hz from a holding potential at -70 mV. […]

[1] = + A-803467, Control (pAAV-GFP) + ZL192
[2] = + A-803467, Sh (pAAV-shFGF13-GFP) + ZL192
[3] = + Nav1.8 blocker A-803467, Naive + ZL192
[4] = + Nav1.8 blocker A-803467, Naïve + ZL192

CC(=O)N[C@@H](Cc1ccccc1)C(=O)N[C@@H](CC(C)C)C(=O)N1CCC[C@H]1C(=O)N[C@@H](CCCCN)C(=O)Nc1ccccc1 [ZL192] (Ac-FLPK-NHPh)
Activation [1]: −29.64 ± 0.92 mV | Peak Density [1]: −189.79 ± 15.05 pA/pF | Steady-State inactivation [1]: −70.68 ± 1.76 mV | Tau (τ) [1]: 1.09 ± 0.05 ms | Long-term inactivation, 2nd Pulse (+ A-803467, Control + ZL192): −90.69 ± 2.00 % maximal Na+ current | Long-term inactivation, 3rd Pulse (+ A-803467, Control + ZL192): −89.18 ± 2.37 % maximal Na+ current | Long-term inactivation, 4th Pulse (+ A-803467, Control + ZL192): −87.9 ± 2.75 % maximal Na+ current | Activation [2]: −22.84 ± 1.28 mV | Peak Density [2]: −77.34 ± 6.83 pA/pF | Steady-State inactivation [2]: −61.77 ± 2.40 mV | Tau (τ) [2]: 1.23 ± 0.05 ms | Long-term inactivation, 2nd Pulse (+ A-803467, Sh + Zl192): −84.46 ± 3.81 % maximal Na+ current | Long-term inactivation, 3rd Pulse (+ A-803467, Sh + Zl192): −82.09 ± 3.89 % maximal Na+ current | Long-term inactivation, 4th Pulse (+ A-803467, Sh + Zl192): −80.59 ± 4.08 % maximal Na+ current | Activation [3]: −29.92 ± 0.79 mV | Peak Density [3]: −181.06 ± 13.74 pA/pF | Steady-State inactivation [3]: −72.03 ± 0.94 mV | Tau (τ) [3]: 1.31 ± 0.06 ms | Long-term inactivation, 2nd Pulse [4]: −90.95 ± 1.82 % maximal Na+ current | Long-term inactivation, 3rd Pulse [4]: −88.17 ± 2.02 % maximal Na+ current | Long-term inactivation, 4th Pulse [4]: −86.7 ± 1.7 % maximal Na+ current | effect on INa in naive neurons (ZL192 50 μM, no triggering stimuli): potentiated INa
